Test system: antibody in the antiserum of rabbit immunized by the acetylcholine bovine serum albumin immunogen
Experiment: Radioimmunoassay specificity: inhibition of binding of acetylcholine-H^3 to the antibody
Description: The volume was adjusted to 0.5 ml with phosphate-buffered saline, pH 7.4, which is the optimal pH for the assay. […]. […] After 2 washings with 50% saturated ammonium sulfate, the precipitate was dissolved in 0.5 ml of water. […] The 12 ml washings were all collected in the vial. The radioactivity was then counted with a Beckman liquid scintillation counter. The dilution of the antiserum chosen for further studies was 1:50.

Compound	IC50 (read-out: concentration producing 50% inhibition of binding of acetylcholine --H^3 to the antibody, antiserum 1:50, incubated 2 hours at 4° C, pH 7.4, eserine present, ammonium sulfate precipitation) [pM]	recognition by the antibody (competition with labelled acetylcholine) (antiserum incubated with acetate in the presence of labelled acetylcholine)
CC(=O)OCC[N+](C)(C)C [Acetylcholine, acetylcholine]	30	
CC(=O)O [acetate]		failed to recognize
